# Source: patent US20180133343A1, “NANOPARTICLE CONJUGATES AND USES THEREOF” (Massachusetts Institute of Technology, priority 2016, published 2018)
# System: CD8+ T cells
# Assay: Drug concentration in CD8+ T cells after in vitro incubation
# Format: cell-based
# Settings: free drug at 10-fold higher dose, compared to drug-loaded nanoparticles
compound,measurement,value
Cc1cccc(-c2[nH]c(C(C)(C)C)nc2-c2ccc3nccnc3c2)n1 [SB525334],drug/cell ratio,lower drug/cell ratio
